Results: ChEMBL document CHEMBL3727368, “Thienopyrimidine inhibitors of atypical protein kinase C” (2013)
Each block holds one compound with its values, some of them ahead of it.

What was measured:
[1] = molecular target: T1, Protein kinase C iota type (Homo sapiens, UniProt P41743); assay: Inhibition of recombinant full-length human PKC-iota expressed in Sf21 cells using FAM-PKCs pseudopeptide derived peptide substrate and 150 uM ATP by fluorescence polarization based IMAP assay
T1 sequence (P41743 whole entry): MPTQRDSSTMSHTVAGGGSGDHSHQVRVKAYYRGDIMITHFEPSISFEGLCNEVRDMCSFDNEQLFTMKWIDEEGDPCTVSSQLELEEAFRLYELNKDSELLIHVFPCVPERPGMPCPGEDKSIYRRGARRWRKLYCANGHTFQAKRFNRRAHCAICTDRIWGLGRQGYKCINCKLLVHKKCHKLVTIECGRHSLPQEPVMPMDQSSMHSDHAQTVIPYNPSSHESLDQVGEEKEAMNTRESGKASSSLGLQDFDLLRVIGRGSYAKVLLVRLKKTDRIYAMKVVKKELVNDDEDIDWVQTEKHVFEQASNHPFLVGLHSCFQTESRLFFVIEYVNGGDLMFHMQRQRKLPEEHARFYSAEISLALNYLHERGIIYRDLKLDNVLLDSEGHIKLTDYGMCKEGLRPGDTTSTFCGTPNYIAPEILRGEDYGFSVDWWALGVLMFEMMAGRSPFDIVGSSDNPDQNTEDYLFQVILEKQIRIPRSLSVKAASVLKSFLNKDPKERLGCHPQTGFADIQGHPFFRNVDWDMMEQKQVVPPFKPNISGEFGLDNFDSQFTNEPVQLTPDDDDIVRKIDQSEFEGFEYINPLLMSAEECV

[2] = molecular target: T1, Protein kinase C iota type; assay: Inhibition of recombinant human PKC-iota kinase domain expressed in Sf21 cells using FAM-PKCs pseudopeptide derived peptide substrate and 25 uM ATP by fluorescence polarization based IMAP assay

SMILES: N[C@H](CNc1nc(-c2ccncc2)nc2c(C#CC3(O)CCCC3)csc12)Cc1ccccc1
IC50 [1]: < 100 nM

SMILES: N[C@H](CNc1nc(-c2ccncc2)nc2c(C#CCCO)csc12)Cc1ccccc1
IC50 [1]: < 100 nM

SMILES: Brc1csc2c(N[C@@H]3CCNC3)nc(-c3ccncc3)nc12
IC50 [1]: < 100 nM

SMILES: N[C@H](CNc1nc(-c2ccncc2)nc2c(Nc3ccon3)csc12)Cc1ccccc1
IC50 [1]: < 100 nM

SMILES: N[C@H](CNc1nc(-c2ccncc2)nc2sc3c(c12)CCCC3)Cc1ccccc1O
IC50 [1]: < 100 nM

SMILES: F[C@H]1NCC[C@H]1Nc1nc(-c2ccncc2)nc2ccsc12
IC50 [1]: ≥ 10000 nM

SMILES: N[C@H](CNc1nc(-c2ccncc2)nc2c(C#CC3CC3)csc12)Cc1ccccc1
IC50 [1]: < 100 nM

SMILES: N[C@H](CNc1nc(-c2ccncc2)nc2c(/C=C/C3CC3)csc12)Cc1ccccc1
IC50 [1]: < 100 nM

SMILES: C[C@H](N)CNc1nc(-c2ccncc2)nc2sc3c(c12)CCCC3
IC50 [2]: < 100 nM

SMILES: N[C@H](CNc1nc(-c2ccncc2)nc2c(Nc3ccccn3)csc12)Cc1ccccc1
IC50 [1]: < 100 nM

SMILES: CC(C)(O)C#Cc1csc2c(NC[C@@H](N)Cc3ccccc3)nc(-c3ccncc3)nc12
IC50 [1]: < 100 nM

SMILES: CC[C@H](O)C#Cc1csc2c(NC[C@@H](N)Cc3ccccc3)nc(-c3ccncc3)nc12
IC50 [1]: < 100 nM

SMILES: N[C@H](CNc1nc(-c2ccncc2)nc2c(C#CC3(O)CCC3)csc12)Cc1ccccc1
IC50 [1]: < 100 nM

SMILES: N[C@H](CNc1nc(-c2ccncc2)nc2c(C#Cc3cc[nH]n3)csc12)Cc1ccccc1
IC50 [1]: < 100 nM

SMILES: N[C@H](CNc1nc(-c2ccncc2F)nc2c(C#CCO)csc12)Cc1ccccc1
IC50 [1]: < 100 nM

SMILES: CC(O)CC#Cc1csc2c(NC[C@@H](N)Cc3ccccc3)nc(-c3ccncc3)nc12 (stereo partly drawn)
IC50 [1]: < 100 nM

SMILES: N[C@H](CNc1nc(-c2ccncc2)nc2c(NC(=O)C3CCCC3)csc12)Cc1ccccc1
IC50 [1]: ≥ 10000 nM

SMILES: N[C@H](CNc1nc(-c2ccncc2F)nc2c(Br)csc12)Cc1ccccc1
IC50 [1]: < 100 nM

SMILES: N[C@H](CNc1nc(-c2ccncc2)nc2c(-c3cn[nH]n3)csc12)Cc1ccccc1
IC50 [1]: < 100 nM

SMILES: Cc1csc2nc(-c3ccncc3)nc(N3CCNCC3)c12
IC50 [2]: < 100 nM

SMILES: CCC[C@@H](O)[C@H](O)C#Cc1csc2c(NC[C@@H](N)Cc3ccccc3)nc(-c3ccncc3)nc12
IC50 [1]: ≥ 1000 nM

SMILES: N[C@H](CNc1nc(-c2ccncc2)nc2c(C#CC3(O)CC3)csc12)Cc1ccccc1
IC50 [1]: < 100 nM

SMILES: N[C@H](CNc1nc(-c2ccncc2)nc2c(-c3ccn[nH]3)csc12)Cc1ccccc1
IC50 [1]: < 100 nM

SMILES: C[C@H](O)C#Cc1csc2c(N[C@@H]3CCNC3)nc(-c3ccncc3)nc12
IC50 [1]: < 100 nM

SMILES: CC(C)S(=O)(=O)c1cccc(Nc2cc(-c3nc(N[C@@H]4CCNC4)c4sccc4n3)ccn2)c1
IC50 [1]: ≥ 1000 nM

SMILES: N[C@H](CNc1nc(-c2ccncc2F)nc2c(-c3cc[nH]n3)csc12)Cc1ccccc1
IC50 [1]: < 100 nM

SMILES: Cc1ccc(CN2CCN(c3nc(-c4ccncc4)nc4sc5c(c34)CCCC5)CC2)cc1
IC50 [2]: ≥ 10000 nM

SMILES: c1cc(-c2nc(N[C@@H]3CCNC3)c3scc(-c4ccn[nH]4)c3n2)ccn1
IC50 [1]: < 100 nM

SMILES: N[C@H](CNc1nc(-c2ccncc2)nc2c(-c3ccccc3Cl)c(C(F)(F)F)sc12)Cc1ccccc1
IC50 [1]: ≥ 10000 nM

SMILES: CC(C)(C)OC(=O)N1CCc2c(sc3nc(-c4ccncc4)nc(NCCN)c23)C1
IC50 [1]: ≥ 10000 nM

SMILES: N[C@H](CNc1nc(-c2ccncc2)nc2c(/C=C/C(=O)O)csc12)Cc1ccccc1
IC50 [1]: ≤ 1000 nM

Results, then the compound that gave them:

IC50 [1]: < 100 nM
SMILES: CC#Cc1csc2c(NC[C@@H](N)Cc3ccccc3)nc(-c3ccncc3)nc12

IC50 [1]: < 100 nM
SMILES: CNC(=O)c1csc2c(NC[C@@H](N)Cc3ccccc3)nc(-c3ccncc3)nc12

IC50 [1]: < 100 nM
SMILES: N[C@H](CNc1nc(-c2ccncc2)nc2c(C3CC3)csc12)Cc1ccccc1

IC50 [1]: < 100 nM
SMILES: N[C@H](CNc1nc(-c2ccncc2)nc2c(Br)csc12)Cc1ccccc1

IC50 [1]: < 100 nM
SMILES: C[C@H](O)C#Cc1csc2c(NC[C@@H](N)Cc3ccccc3)nc(-c3ccncc3)nc12

IC50 [2]: < 100 nM
SMILES: Cc1csc2c(NC[C@@H](N)Cc3ccccc3)nc(-c3ccncc3)nc12

IC50 [1]: < 100 nM
SMILES: COCC#Cc1csc2c(NC[C@@H](N)Cc3ccccc3)nc(-c3ccncc3)nc12

IC50 [1]: < 100 nM
SMILES: Cc1sc2c(NC[C@@H](N)Cc3ccccc3)nc(-c3ccncc3)nc2c1-c1ccn[nH]1

IC50 [1]: < 100 nM
SMILES: N[C@H](CNc1nc(-c2ccncc2)nc2c(C#CCF)csc12)Cc1ccccc1

IC50 [1]: < 100 nM
SMILES: C=Cc1csc2c(NC[C@@H](N)Cc3ccccc3)nc(-c3ccncc3)nc12

IC50 [1]: < 100 nM
SMILES: C[C@@H](O)C#Cc1csc2c(NC[C@@H](N)Cc3ccccc3)nc(-c3ccncc3)nc12

IC50 [1]: < 100 nM
SMILES: N#Cc1csc2c(NC[C@@H](N)Cc3ccccc3)nc(-c3ccncc3)nc12

IC50 [1]: < 100 nM
SMILES: N[C@H](CNc1nc(-c2ccncc2)nc2c(C#CCO)csc12)Cc1ccccc1

IC50 [1]: < 100 nM
SMILES: N[C@H](CNc1nc(-c2ccncc2)nc2c(Cl)csc12)Cc1ccccc1

IC50 [1]: < 100 nM
SMILES: Cc1sc2c(NC[C@@H](N)Cc3ccccc3)nc(-c3ccncc3)nc2c1Br

IC50 [1]: < 100 nM
SMILES: C/C=C\c1csc2c(NC[C@@H](N)Cc3ccccc3)nc(-c3ccncc3)nc12

IC50 [1]: < 100 nM
SMILES: Cc1sc2c(NC[C@@H](N)Cc3ccccc3)nc(-c3ccncc3)nc2c1C#CC(C)(C)O

IC50 [1]: < 100 nM
SMILES: C[C@@H](F)C#Cc1csc2c(NC[C@@H](N)Cc3ccccc3)nc(-c3ccncc3)nc12

IC50 [1]: < 100 nM
SMILES: CC(O)C#Cc1csc2c(NC[C@@H](N)Cc3ccccc3)nc(-c3ccncc3)nc12 (stereo partly drawn)

IC50 [1]: < 100 nM
SMILES: Cc1cc(-c2csc3c(NC[C@@H](N)Cc4ccccc4)nc(-c4ccncc4)nc23)n[nH]1

IC50 [1]: < 100 nM
SMILES: CCc1cc(-c2csc3c(NC[C@@H](N)Cc4ccccc4)nc(-c4ccncc4)nc23)[nH]n1

IC50 [1]: < 100 nM
SMILES: C#Cc1csc2c(NC[C@@H](N)Cc3ccccc3)nc(-c3ccncc3)nc12
